Test [1] concerns the target Poly [ADP-ribose] polymerase 2 (Homo sapiens, UniProt Q9UGN5). In words: Inhibition of PARP-2 (unknown origin).
Test [2] concerns the target Poly [ADP-ribose] polymerase 1 (Homo sapiens, UniProt P09874). In words: Inhibition of human recombinant PARP-1.

Sequence of Poly [ADP-ribose] polymerase 1 (P09874 whole entry): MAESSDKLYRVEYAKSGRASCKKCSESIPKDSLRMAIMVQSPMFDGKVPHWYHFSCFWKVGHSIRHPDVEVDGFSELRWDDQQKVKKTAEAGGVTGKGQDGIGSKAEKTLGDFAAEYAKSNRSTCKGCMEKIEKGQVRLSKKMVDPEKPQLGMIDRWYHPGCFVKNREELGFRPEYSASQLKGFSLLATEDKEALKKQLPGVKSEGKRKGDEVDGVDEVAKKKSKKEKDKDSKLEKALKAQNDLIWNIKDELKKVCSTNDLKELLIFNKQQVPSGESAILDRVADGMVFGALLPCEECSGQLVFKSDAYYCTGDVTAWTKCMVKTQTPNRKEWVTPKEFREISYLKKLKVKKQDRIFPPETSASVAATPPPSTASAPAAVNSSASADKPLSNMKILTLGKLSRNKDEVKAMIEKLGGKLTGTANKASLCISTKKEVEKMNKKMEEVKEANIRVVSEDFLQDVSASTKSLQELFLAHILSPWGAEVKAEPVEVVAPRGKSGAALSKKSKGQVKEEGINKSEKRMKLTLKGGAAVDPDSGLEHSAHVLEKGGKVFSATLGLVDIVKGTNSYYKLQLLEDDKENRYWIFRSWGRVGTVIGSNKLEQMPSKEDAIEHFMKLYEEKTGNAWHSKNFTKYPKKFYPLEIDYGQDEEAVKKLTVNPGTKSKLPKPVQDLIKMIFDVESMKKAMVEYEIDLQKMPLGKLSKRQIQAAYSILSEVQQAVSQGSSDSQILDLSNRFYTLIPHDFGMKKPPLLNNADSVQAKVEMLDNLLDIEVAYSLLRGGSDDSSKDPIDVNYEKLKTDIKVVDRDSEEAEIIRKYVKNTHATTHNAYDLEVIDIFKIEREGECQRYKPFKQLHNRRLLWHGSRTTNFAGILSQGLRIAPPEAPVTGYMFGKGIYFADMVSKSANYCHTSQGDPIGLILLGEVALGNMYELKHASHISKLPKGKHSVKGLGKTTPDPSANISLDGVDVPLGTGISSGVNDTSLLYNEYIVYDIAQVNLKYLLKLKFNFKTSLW
Sequence of Poly [ADP-ribose] polymerase 2 (Q9UGN5 whole entry): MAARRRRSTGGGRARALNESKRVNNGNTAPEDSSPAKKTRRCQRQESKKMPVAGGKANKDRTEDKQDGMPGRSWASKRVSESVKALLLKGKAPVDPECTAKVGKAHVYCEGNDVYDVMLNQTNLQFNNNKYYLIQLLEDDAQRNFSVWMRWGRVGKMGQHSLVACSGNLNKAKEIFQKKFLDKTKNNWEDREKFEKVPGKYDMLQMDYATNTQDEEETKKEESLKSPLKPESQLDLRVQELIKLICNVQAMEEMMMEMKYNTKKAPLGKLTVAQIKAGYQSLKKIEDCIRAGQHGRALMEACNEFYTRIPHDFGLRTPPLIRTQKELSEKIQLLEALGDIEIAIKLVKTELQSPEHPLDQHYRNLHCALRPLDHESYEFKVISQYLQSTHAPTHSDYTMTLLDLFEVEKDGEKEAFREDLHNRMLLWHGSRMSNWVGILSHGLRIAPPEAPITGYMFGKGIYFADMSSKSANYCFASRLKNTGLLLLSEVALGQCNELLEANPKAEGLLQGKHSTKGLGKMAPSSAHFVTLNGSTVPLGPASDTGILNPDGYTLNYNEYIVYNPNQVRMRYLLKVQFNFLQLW

One may read the IC50 as the concentration that inhibits the measured activity by half. With `O=c1[nH]c(CCCN2CCC(c3ccccc3)CC2)nc2ccccc12`, the IC50 in test [1] stood at 608 nM; in test [2], 21 nM.
Taken in the same sequence, the figures for `O=c1[nH]c(CCCN2CCC(c3ccccc3)CC2)nc2c(Cl)cccc12` were 610 nM and 23 nM.
Taken in the same sequence, the figures for `O=c1[nH]c(CCCN2CCC(c3ccc(F)cc3)CC2)nc2c(Cl)cccc12` were 500 nM and 13 nM.
Taken in the same sequence, the figures for `N#Cc1ccc(C2CCN(CCCc3nc4c(Cl)cccc4c(=O)[nH]3)CC2)cc1` were 87 nM and 3 nM.
Take `Cc1cccc2c(=O)[nH]c(CCCN3CCC(c4ccc(F)cc4)CC3)nc12`: the IC50 came out at 167 nM in test [1] and 16 nM in test [2].
Taken in the same sequence, the figures for `O=c1[nH]c(CCCN2CCC(c3ccccc3)CC2)nc2cccc(Cl)c12` were 630 nM and 68 nM.
Taken in the same sequence, the figures for `O=c1[nH]c(CCCN2CCN(c3ccccc3)CC2)nc2cccc(Cl)c12` were 300 nM and 11 nM.

These data come from ChEMBL document CHEMBL5375994, “Advances in Development of Selective Antitumor Inhibitors That Target PARP-1” (J Med Chem, 2023).
